Experimental data: publication PMC5215849 (Antiviral research, 2016)
≈ marks a conversion by molar mass, not a printed value. Like-named read-outs stand apart in the source and are kept apart here.

What was measured:
[1] = tested on: ZIKV PRVABC-59; test: CPE reduction assay, ZIKV Puerto Rican PRVABC-59; assay type: cell-based; details: Zika virus
[2] = tested on: ZIKV P 6-740; test: CPE reduction assay, ZIKV Malaysian P 6-740; assay type: cell-based; details: Zika virus
[3] = tested on: ZIKV MR-766; test: CPE reduction assay, ZIKV Ugandan MR-766; assay type: cell-based; details: Zika virus
[4] = tested on: ZIKV; test: Virus yield reduction concentration-response; assay type: cell-based, Zika virus; details: single test
[5] = tested on: ZIKV (P 6-740); assay type: in vivo, AG129 mice; details: for Mean weight change from days 7 to 13: vehicle −3.1 ± 2.4 g, p<0.001
[6] = tested on: ZIKV Malaysian P 6-740; test: Virus yield reduction
[7] = tested on: ZIKV PRVABC-59; test: Virus yield reduction; details: Zika virus
[8] = tested on: ZIKV (P 6-740); test: Re-challenge of surviving BCX4430-treated AG129 mice with ZIKV; assay type: in vivo; details: BCX4430-treated mice (300 mg/kg/d) that survived initial ZIKV challenge
[9] = tested on: ZIKV (P 6-740); assay type: in vivo, AG129 mice
[10] = tested on: ZIKV MR-766; test: Virus yield reduction; details: Zika virus
[11] = tested on: ZIKV P 6-740; test: Virus yield reduction; details: Zika virus
[12] = Huh-7, read-out: CPE red. assay EC50
[13] = RD, read-out: CPE red. assay EC50
[14] = Vero 76, read-out: CPE red. assay EC50
[15] = Huh-7, read-out: VYR assay EC90
[16] = Vero 76, read-out: VYR assay EC90
[17] = 300 mg/kg/d bid for 7 days beginning 3 dpi

Row | Compound | EC50 [1, 12] [µg/mL] | EC50 [1, 13] [µg/mL] | EC50 [1, 14] [µg/mL] | EC50 [2, 12] [µg/mL] | EC50 [3, 12] [µg/mL] | EC50 [3, 13] [µg/mL] | EC50 [3, 14] [µg/mL] | selectivity ratio ([6]; African green monkey) | selectivity ratio ([6]; human) | EC90 [7, 15] [µg/mL] | EC90 ([7]; RD, read-out: VYR assay EC90) [µg/mL] | EC90 [7, 16] [µg/mL] | also measured
1 | NC(=O)c1ncn([C@@H]2O[C@H](CO)[C@@H](O)[C@H]2O)n1 [Ribavirin, reference compound] | 3.8 ± 1.6 (≈ 15.6 µM) | 10 ± 6 (≈ 40.9 µM) | 23 ± 16.8 (≈ 94.2 µM) | 7.2 ± 2.8 (≈ 29.5 µM) | 8.9 ± 7.9 (≈ 36.4 µM) | 9.3 ± 5.2 (≈ 38.1 µM) | 85 ± 77.9 (≈ 348 µM) | 1.6 | 24.5 | 10.4 ± 0.8 (≈ 42.6 µM) | 46.3 ± 8.6 (≈ 190 µM) | 281 ± 108 (≈ 1150 µM) | Activity in virus yield reduction assay ([4]; Vero76 cells (Figure 1A)): not active; Activity in virus yield reduction assay ([4]; human cell lines Huh-7 and RD (Figures 1B and C)): confirmed the antiviral activity; Viral RNA level in pooled serum on day 5 (qRT-PCR) ([5]; ribavirin i.p. bid 75 or 50 mg/kg/d): did not improve viral RNA levels; Outcome (survival) ([5]; ribavirin i.p. bid 75 or 50 mg/kg/d for 8 days): did not improve outcomes; Protection against weight loss ([5]; ribavirin i.p. bid 75 or 50 mg/kg/d, days 7 to 13): did not protect against weight loss
2 | Nc1ncnc2c([C@@H]3N[C@H](CO)[C@@H](O)[C@H]3O)c[nH]c12 [BCX4430] | 4.7 ± 0.6 (≈ 17.7 µM) | 4.7 ± 2.2 (≈ 17.7 µM) | 3.8 ± 2.5 (≈ 14.3 µM) | 5.5 ± 0.1 (≈ 20.7 µM) | 5.7 ± 0.9 (≈ 21.5 µM) | 4.4 ± 1.3 (≈ 16.6 µM) | 11.7 ± 4.7 (≈ 44.1 µM) | 7.3 | 20.5 | 6.7 ± 1.2 (≈ 25.3 µM) | 10 ± 2.2 (≈ 37.7 µM) | 18.2 ± 2.7 (≈ 68.6 µM) | EC50 [2, 14]: 11.5 ± 4.4 µg/mL (≈ 43.4 µM); Mean weight change from days 7 to 13 ([5]; 150 mg/kg/d): -0.3 ± 0.8 g; Weight between 0 and 19 dpi ([5]; 300 mg/kg/d, similar to sham infected animals treated with the same dose): did not decline substantially; Mean weight change from days 7 to 13 ([5]; 300 mg/kg/d): +0.2 ± 0.5 g; Viral RNA level in pooled serum on day 5 (qRT-PCR) ([5]; either dose of BCX4430 (300 or 150 mg/kg/d)): significant reduction in viremia; Neutralizing antibody titers in serum just prior to re-challenge [8]: 4-5 log10 PRNT50; Protection from weight loss between 7 and 13 dpi ([9]; 300 mg/kg/d beginning 1, 3 or 5 dpi, vs vehicle p<0.001): Significant protection from weight loss; Viral RNA levels in serum on 5 dpi ([9]; 300 mg/kg/d beginning 1 or 3 dpi): not significantly decreased; Median survival ([9]; 300 mg/kg/d bid for 7 days beginning 1 dpi): > 28 days; Median survival [9, 17]: 19.5 days; Survivors [9, 17]: only a single mouse survived; Median survival ([9]; 300 mg/kg/d bid for 7 days beginning 5 dpi): 18 days; Median survival ([9]; 300 mg/kg/d bid for 7 days beginning 7 dpi): 17 days; EC90 [10, 15]: 6.4 µg/mL (≈ 24.1 µM); EC90 ([10]; RD, read-out: VYR assay EC90): 5.4 ± 1.1 µg/mL (≈ 20.4 µM); EC90 [10, 16]: 8.7 µg/mL (≈ 32.8 µM); EC90 [11, 15]: 4.9 ± 0.9 µg/mL (≈ 18.5 µM); EC90 [11, 16]: 13.8 ± 3.7 µg/mL (≈ 52 µM)
